Legend:
Experiment in all cases: radiometric filter-binding kinase assay
[1] = tested on: AKT1 (human), P31749 [S473D]
AURKA (human) = AURKA (human) (UniProt O14965); conditions: compound 10.0 µM
BRSK2 (human) = BRSK2 (human) (UniProt Q8IWQ3)
CHEK2 (human) = CHEK2 (human) (UniProt O96017)
CaMK1 (human) = CaMK1 (human) (UniProt Q14012)
DYRK1A (human) = DYRK1A (human) (UniProt Q13627)
DYRK2 (human) = DYRK2 (human) (UniProt Q92630)
EPHB3 (human) = EPHB3 (human) (UniProt P54753)
ERBB4 (human) = ERBB4 (human) (UniProt Q15303)
HIPK2 (human) = HIPK2 (human) (UniProt Q9H2X6)
IKBKE (human) = IKBKE (human) (UniProt Q14164)
MAP3K11 (human) = MAP3K11 (human) (UniProt Q16584); conditions: compound 10.0 µM
MAPK1 (human) = MAPK1 (human) (UniProt P28482)
MAPK10 (human) = MAPK10 (human) (UniProt P53779)
MAPK12 (human) = MAPK12 (human) (UniProt P53778)
MAPK13 (human) = MAPK13 (human) (UniProt O15264)
MAPK3 (human) = MAPK3 (human) (UniProt P27361)
MAPK8 (human) = MAPK8 (human) (UniProt P45983)
MAPKAPK3 (human) = MAPKAPK3 (human) (UniProt Q16644)
MARK2 (human) = MARK2 (human) (UniProt Q7KZI7)
MKNK1 (human) = MKNK1 (human) (UniProt Q9BUB5)
MST4 (human) = MST4 (human) (UniProt Q9P289)
NEK2 (human) = NEK2 (human) (UniProt P51955)
NUAK1 (human) = NUAK1 (human) (UniProt O60285)
PAK4 (human) = PAK4 (human) (UniProt O96013)
PAK7 (human) = PAK7 (human) (UniProt Q9P286)
PLK1 (human) = PLK1 (human) (UniProt P53350)
PRKAA1 or PRKAA2 (rat) = conditions: accession and sequence are those of the human protein
PRKACA (human) = PRKACA (human) (UniProt P17612)
PRKCA (human) = PRKCA (human) (UniProt P17252)
RPS6KA1 KD1 KD2 (human) = RPS6KA1 KD1 KD2 (human) (UniProt Q15418)
[2] = tested on: SGK1 (human), O00141 [S422D]
SYK (human) = SYK (human) (UniProt P43405)

Sequence of MAPKAPK3 (human) (Q16644 whole entry, looked up): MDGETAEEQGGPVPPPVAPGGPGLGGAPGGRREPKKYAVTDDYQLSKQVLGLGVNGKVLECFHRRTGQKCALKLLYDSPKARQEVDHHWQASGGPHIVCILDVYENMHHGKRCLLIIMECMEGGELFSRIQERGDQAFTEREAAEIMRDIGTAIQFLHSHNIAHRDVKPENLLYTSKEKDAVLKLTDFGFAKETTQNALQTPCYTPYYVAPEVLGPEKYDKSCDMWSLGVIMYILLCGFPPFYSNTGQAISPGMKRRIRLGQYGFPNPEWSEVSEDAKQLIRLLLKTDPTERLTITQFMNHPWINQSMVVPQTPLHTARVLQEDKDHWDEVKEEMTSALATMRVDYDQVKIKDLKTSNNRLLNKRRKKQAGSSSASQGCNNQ
Sequence of CaMK1 (human) (Q14012 whole entry, looked up): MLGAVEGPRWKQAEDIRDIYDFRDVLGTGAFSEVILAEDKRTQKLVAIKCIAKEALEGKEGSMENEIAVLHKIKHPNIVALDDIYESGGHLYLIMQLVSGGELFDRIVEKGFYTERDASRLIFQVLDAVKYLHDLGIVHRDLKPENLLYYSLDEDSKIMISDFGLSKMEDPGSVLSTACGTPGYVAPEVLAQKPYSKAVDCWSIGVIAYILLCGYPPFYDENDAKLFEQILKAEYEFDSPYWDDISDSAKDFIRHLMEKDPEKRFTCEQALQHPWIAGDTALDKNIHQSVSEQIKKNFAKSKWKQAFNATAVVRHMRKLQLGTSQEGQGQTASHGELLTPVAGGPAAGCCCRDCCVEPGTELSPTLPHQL
Sequence of HIPK2 (human) (Q9H2X6 whole entry, looked up): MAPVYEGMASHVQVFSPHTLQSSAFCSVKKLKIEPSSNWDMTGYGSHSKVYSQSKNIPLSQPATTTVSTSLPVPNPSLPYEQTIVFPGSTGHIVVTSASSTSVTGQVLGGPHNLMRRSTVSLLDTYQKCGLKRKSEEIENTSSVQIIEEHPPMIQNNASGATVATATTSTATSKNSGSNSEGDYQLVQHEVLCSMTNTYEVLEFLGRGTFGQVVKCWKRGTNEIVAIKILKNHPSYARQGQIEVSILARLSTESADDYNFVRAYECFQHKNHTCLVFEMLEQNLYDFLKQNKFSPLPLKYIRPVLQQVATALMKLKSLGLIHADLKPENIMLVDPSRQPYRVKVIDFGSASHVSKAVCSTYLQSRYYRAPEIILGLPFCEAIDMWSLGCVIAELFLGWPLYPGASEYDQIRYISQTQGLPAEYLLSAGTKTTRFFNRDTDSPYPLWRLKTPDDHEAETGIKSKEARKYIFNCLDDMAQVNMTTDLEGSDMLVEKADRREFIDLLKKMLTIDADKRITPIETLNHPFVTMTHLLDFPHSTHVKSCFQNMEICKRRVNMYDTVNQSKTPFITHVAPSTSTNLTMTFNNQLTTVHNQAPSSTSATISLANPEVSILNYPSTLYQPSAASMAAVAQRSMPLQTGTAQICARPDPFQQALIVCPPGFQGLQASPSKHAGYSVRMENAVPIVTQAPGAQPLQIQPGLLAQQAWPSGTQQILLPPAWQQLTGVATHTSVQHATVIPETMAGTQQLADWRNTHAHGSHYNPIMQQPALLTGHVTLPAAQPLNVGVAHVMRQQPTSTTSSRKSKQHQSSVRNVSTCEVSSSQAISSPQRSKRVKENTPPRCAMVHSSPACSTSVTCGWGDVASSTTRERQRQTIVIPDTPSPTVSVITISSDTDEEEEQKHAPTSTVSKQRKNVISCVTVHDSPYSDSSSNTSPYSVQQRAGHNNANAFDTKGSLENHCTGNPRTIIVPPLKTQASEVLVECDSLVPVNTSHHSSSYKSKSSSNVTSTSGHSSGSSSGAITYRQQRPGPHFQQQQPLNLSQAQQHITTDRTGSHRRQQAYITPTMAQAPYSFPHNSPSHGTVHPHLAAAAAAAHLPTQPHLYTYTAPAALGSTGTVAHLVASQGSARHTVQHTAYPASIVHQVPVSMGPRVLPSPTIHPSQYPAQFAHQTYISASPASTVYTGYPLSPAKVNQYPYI
Sequence of PAK4 (human) (O96013 whole entry, looked up): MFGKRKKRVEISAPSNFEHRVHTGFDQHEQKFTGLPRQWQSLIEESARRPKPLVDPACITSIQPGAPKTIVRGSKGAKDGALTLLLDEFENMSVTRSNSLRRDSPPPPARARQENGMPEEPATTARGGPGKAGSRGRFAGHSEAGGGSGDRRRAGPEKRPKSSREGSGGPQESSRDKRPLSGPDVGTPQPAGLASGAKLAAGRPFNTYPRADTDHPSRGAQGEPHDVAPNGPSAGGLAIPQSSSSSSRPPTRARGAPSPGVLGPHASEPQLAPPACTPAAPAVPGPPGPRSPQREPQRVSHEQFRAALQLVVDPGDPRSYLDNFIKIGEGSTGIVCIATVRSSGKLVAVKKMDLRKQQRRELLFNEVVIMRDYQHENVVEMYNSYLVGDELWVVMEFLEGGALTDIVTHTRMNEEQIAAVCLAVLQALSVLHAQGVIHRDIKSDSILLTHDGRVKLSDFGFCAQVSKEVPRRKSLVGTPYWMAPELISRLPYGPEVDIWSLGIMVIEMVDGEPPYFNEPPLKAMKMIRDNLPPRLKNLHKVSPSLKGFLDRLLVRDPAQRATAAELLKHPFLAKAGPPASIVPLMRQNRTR
Sequence of PLK1 (human) (P53350 whole entry, looked up): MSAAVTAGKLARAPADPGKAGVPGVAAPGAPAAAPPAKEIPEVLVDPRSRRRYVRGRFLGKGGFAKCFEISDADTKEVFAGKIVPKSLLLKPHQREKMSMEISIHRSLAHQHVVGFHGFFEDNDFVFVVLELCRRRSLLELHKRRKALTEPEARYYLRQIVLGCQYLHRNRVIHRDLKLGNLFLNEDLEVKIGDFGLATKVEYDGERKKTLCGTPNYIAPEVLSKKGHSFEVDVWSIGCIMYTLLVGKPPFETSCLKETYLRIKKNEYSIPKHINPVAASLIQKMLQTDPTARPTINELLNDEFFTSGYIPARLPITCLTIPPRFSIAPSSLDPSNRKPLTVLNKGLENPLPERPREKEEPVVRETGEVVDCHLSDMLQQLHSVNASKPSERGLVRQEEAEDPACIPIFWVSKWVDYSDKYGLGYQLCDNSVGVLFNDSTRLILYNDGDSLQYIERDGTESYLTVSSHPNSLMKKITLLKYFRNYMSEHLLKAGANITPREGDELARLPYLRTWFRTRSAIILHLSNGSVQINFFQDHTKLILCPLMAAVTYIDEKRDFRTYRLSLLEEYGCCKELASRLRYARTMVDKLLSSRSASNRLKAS
Sequence of MAPK12 (human) (P53778 whole entry, looked up): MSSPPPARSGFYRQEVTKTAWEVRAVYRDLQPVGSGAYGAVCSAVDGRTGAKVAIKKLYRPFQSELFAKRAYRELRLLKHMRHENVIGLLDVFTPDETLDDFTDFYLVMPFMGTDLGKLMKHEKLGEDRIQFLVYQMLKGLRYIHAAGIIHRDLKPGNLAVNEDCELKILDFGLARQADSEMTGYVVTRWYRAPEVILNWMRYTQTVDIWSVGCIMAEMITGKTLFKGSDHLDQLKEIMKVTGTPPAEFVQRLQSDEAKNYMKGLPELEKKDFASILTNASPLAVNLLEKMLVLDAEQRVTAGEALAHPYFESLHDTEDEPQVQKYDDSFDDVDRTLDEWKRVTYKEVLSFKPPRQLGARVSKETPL
Sequence of MAPK3 (human) (P27361 whole entry, looked up): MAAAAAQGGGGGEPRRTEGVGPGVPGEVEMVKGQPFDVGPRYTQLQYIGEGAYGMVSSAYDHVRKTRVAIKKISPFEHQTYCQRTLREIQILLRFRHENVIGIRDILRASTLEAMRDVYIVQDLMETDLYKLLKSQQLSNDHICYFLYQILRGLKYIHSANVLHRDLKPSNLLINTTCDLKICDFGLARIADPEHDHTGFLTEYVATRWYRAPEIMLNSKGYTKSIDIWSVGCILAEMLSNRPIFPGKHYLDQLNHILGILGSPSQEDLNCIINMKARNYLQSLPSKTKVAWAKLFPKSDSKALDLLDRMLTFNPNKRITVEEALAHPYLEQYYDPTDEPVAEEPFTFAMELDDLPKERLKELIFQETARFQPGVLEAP
Sequence of PAK7 (human) (Q9P286 whole entry, looked up): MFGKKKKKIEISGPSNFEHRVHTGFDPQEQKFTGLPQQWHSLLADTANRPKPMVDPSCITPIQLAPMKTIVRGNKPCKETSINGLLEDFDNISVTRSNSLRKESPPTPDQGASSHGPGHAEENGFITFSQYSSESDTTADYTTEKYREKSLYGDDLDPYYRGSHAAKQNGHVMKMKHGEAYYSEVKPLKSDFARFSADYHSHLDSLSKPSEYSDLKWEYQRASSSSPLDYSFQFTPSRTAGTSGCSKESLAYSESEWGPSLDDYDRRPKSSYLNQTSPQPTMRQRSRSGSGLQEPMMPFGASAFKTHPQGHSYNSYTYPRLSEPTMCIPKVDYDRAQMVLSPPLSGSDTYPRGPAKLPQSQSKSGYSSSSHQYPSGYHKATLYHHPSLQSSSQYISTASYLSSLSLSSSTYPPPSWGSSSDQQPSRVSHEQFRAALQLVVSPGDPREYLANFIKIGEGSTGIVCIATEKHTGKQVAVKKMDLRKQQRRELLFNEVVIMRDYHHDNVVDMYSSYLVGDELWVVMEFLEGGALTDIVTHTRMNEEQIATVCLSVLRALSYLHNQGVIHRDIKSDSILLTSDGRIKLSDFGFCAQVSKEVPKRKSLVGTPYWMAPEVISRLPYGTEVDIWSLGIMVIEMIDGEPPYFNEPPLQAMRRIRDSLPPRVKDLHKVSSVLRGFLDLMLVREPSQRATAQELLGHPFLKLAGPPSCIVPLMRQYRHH
Sequence of MAPK13 (human) (O15264 whole entry, looked up): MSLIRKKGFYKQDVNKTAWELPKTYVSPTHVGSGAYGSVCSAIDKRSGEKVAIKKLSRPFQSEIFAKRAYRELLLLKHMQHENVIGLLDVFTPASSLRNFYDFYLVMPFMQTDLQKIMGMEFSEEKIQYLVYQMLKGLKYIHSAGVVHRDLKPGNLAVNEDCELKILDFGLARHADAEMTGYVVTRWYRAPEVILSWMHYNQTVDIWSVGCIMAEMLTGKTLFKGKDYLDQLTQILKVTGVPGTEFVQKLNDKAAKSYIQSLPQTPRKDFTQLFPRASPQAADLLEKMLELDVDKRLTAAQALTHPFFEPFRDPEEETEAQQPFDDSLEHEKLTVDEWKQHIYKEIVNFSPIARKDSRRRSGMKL

O=C(O)c1cc(N=Nc2ccc(S(=O)(=O)Nc3ccccn3)cc2)ccc1O
residual activity ([1]; compound 1.0 µM): 112% | residual activity ([1]; compound 10.0 µM): 106% | residual activity (AURKA (human)): 100% | residual activity (BRSK2 (human); compound 1.0 µM): 106% | residual activity (BRSK2 (human); compound 10.0 µM): 87% | residual activity (CHEK2 (human); compound 1.0 µM): 108% | residual activity (CHEK2 (human); compound 10.0 µM): 103% | residual activity (CaMK1 (human); compound 1.0 µM): 97% | residual activity (CaMK1 (human); compound 10.0 µM): 91% | residual activity (DYRK1A (human); compound 1.0 µM): 94% | residual activity (DYRK1A (human); compound 10.0 µM): 85% | residual activity (DYRK2 (human); compound 1.0 µM): 99% | residual activity (DYRK2 (human); compound 10.0 µM): 79% | residual activity (EPHB3 (human); compound 1.0 µM): 102% | residual activity (EPHB3 (human); compound 10.0 µM): 118% | residual activity (ERBB4 (human); compound 1.0 µM): 100% | residual activity (ERBB4 (human); compound 10.0 µM): 77% | residual activity (HIPK2 (human); compound 10.0 µM): 94% | residual activity (IKBKE (human); compound 1.0 µM): 92% | residual activity (IKBKE (human); compound 10.0 µM): 112% | residual activity (MAP3K11 (human)): 71% | residual activity (MAPK1 (human); compound 1.0 µM): 104% | residual activity (MAPK1 (human); compound 10.0 µM): 97% | residual activity (MAPK10 (human); compound 1.0 µM): 105% | residual activity (MAPK10 (human); compound 10.0 µM): 107% | residual activity (MAPK12 (human); compound 1.0 µM): 97% | residual activity (MAPK12 (human); compound 10.0 µM): 100% | residual activity (MAPK13 (human); compound 1.0 µM): 100% | residual activity (MAPK13 (human); compound 10.0 µM): 103% | residual activity (MAPK3 (human); compound 1.0 µM): 103% | residual activity (MAPK3 (human); compound 10.0 µM): 110% | residual activity (MAPK8 (human); compound 1.0 µM): 96% | residual activity (MAPK8 (human); compound 10.0 µM): 96% | residual activity (MAPKAPK3 (human); compound 1.0 µM): 116% | residual activity (MAPKAPK3 (human); compound 10.0 µM): 85% | residual activity (MARK2 (human); compound 1.0 µM): 108% | residual activity (MARK2 (human); compound 10.0 µM): 107% | residual activity (MKNK1 (human); compound 1.0 µM): 97% | residual activity (MKNK1 (human); compound 10.0 µM): 79% | residual activity (MST4 (human); compound 1.0 µM): 102% | residual activity (MST4 (human); compound 10.0 µM): 104% | residual activity (NEK2 (human); compound 10.0 µM): 97% | residual activity (NUAK1 (human); compound 1.0 µM): 107% | residual activity (NUAK1 (human); compound 10.0 µM): 86% | residual activity (PAK4 (human); compound 1.0 µM): 89% | residual activity (PAK4 (human); compound 10.0 µM): 76% | residual activity (PAK7 (human); compound 1.0 µM): 104% | residual activity (PAK7 (human); compound 10.0 µM): 96% | residual activity (PLK1 (human); compound 1.0 µM): 106% | residual activity (PLK1 (human); compound 10.0 µM): 102% | residual activity (PRKAA1 or PRKAA2 (rat); compound 1.0 µM): 101% | residual activity (PRKACA (human); compound 1.0 µM): 111% | residual activity (PRKACA (human); compound 10.0 µM): 114% | residual activity (PRKCA (human); compound 1.0 µM): 90% | residual activity (PRKCA (human); compound 10.0 µM): 85% | residual activity (RPS6KA1 KD1 KD2 (human); compound 1.0 µM): 129% | residual activity (RPS6KA1 KD1 KD2 (human); compound 10.0 µM): 122% | residual activity ([2]; compound 1.0 µM): 76% | residual activity ([2]; compound 10.0 µM): 54% | residual activity (SYK (human); compound 1.0 µM): 101% | residual activity (SYK (human); compound 10.0 µM): 107%

Cn1nc(Nc2ccc(F)cc2)c2c(N)ncnc21
residual activity ([1]; compound 1.0 µM): 124% | residual activity ([1]; compound 10.0 µM): 106% | residual activity (BRSK2 (human); compound 1.0 µM): 99% | residual activity (BRSK2 (human); compound 10.0 µM): 92% | residual activity (CHEK2 (human); compound 1.0 µM): 103% | residual activity (CHEK2 (human); compound 10.0 µM): 96% | residual activity (CaMK1 (human); compound 1.0 µM): 103% | residual activity (CaMK1 (human); compound 10.0 µM): 97% | residual activity (DYRK1A (human); compound 1.0 µM): 105% | residual activity (DYRK1A (human); compound 10.0 µM): 101% | residual activity (DYRK2 (human); compound 1.0 µM): 86% | residual activity (DYRK2 (human); compound 10.0 µM): 83% | residual activity (HIPK2 (human); compound 1.0 µM): 113% | residual activity (HIPK2 (human); compound 10.0 µM): 105% | residual activity (MAPK1 (human); compound 1.0 µM): 107% | residual activity (MAPK1 (human); compound 10.0 µM): 110% | residual activity (MAPK10 (human); compound 1.0 µM): 104% | residual activity (MAPK10 (human); compound 10.0 µM): 104% | residual activity (MAPK12 (human); compound 1.0 µM): 113% | residual activity (MAPK12 (human); compound 10.0 µM): 112% | residual activity (MAPK13 (human); compound 1.0 µM): 104% | residual activity (MAPK13 (human); compound 10.0 µM): 109% | residual activity (MAPK3 (human); compound 1.0 µM): 124% | residual activity (MAPK3 (human); compound 10.0 µM): 111% | residual activity (MAPK8 (human); compound 1.0 µM): 112% | residual activity (MAPK8 (human); compound 10.0 µM): 102% | residual activity (MAPKAPK3 (human); compound 1.0 µM): 137% | residual activity (MAPKAPK3 (human); compound 10.0 µM): 132% | residual activity (MKNK1 (human); compound 1.0 µM): 95% | residual activity (MKNK1 (human); compound 10.0 µM): 92% | residual activity (NEK2 (human); compound 1.0 µM): 102% | residual activity (NEK2 (human); compound 10.0 µM): 100% | residual activity (PAK4 (human); compound 1.0 µM): 86% | residual activity (PAK4 (human); compound 10.0 µM): 97% | residual activity (PAK7 (human); compound 1.0 µM): 109% | residual activity (PAK7 (human); compound 10.0 µM): 125% | residual activity (PLK1 (human); compound 1.0 µM): 92% | residual activity (PLK1 (human); compound 10.0 µM): 94% | residual activity (PRKAA1 or PRKAA2 (rat); compound 1.0 µM): 105% | residual activity (PRKAA1 or PRKAA2 (rat); compound 10.0 µM): 107% | residual activity (PRKACA (human); compound 1.0 µM): 106% | residual activity (PRKACA (human); compound 10.0 µM): 107% | residual activity (PRKCA (human); compound 1.0 µM): 120% | residual activity (PRKCA (human); compound 10.0 µM): 121% | residual activity (RPS6KA1 KD1 KD2 (human); compound 1.0 µM): 121% | residual activity (RPS6KA1 KD1 KD2 (human); compound 10.0 µM): 102% | residual activity ([2]; compound 1.0 µM): 97% | residual activity ([2]; compound 10.0 µM): 98%
